This note sets out measurements from ChEMBL document CHEMBL1137918, “Synthesis and antiproliferative activity of 2-aryl-4-oxo-thiazolidin-3-yl-amides for prostate cancer” (Bioorg Med Chem Lett, 2004).

Format in all cases: functional, cell-based
One assay deals with PC-3. Nature of the assay: Antiproliferative activity was evaluated against human prostate PC-3 cancer cell lines using the sulforhodamine B ([…]) assay.
The subject of a further assay is LNCaP. Nature of the assay: Antiproliferative activity was evaluated against human prostate LNCaP cancer cell lines using the sulforhodamine B ([…]) assay.
Assay [1] is described as follows: Antiproliferative activity was evaluated against human prostate PPC-1 cancer cell lines using the sulforhodamine B ([…]) assay.
A short description of assay [2]: Antiproliferative activity was evaluated against human prostate TSU cancer cell lines using the sulforhodamine B ([…]) assay.
The test system of the next assay is DU-145. As to the kind of experiment: Antiproliferative activity was evaluated against human prostate DU-145 cancer cell lines using the sulforhodamine B ([…]) assay.

In the case of `CCCCCCCCCCCCCCCCCCNCCN1CCSC1c1ccccc1` (centres undefined), the 50% inhibitory concentration (IC50) (as a rule, the midpoint of a concentration-inhibition curve) in the assay on PC-3 was greater than 20 µM; in the assay on LNCaP, greater than 20 µM; in assay [1] it was 12 µM; in assay [2] it was 6.1 µM; in the assay with DU-145, 15.8 µM.

For the compound `COc1ccc(CCNC(=O)CN2C(=O)CSC2c2ccccc2)cc1OC` (centres undefined), the IC50 (with PC-3; with LNCaP; in assay [1]; in assay [2]) was greater than 100 µM in each case.
